# Publication PMC6268492, “Synthesis and Antiangiogenic Activity of Novel Gambogic Acid Derivatives” (Molecules, 2012)
# Where two headings read alike, the source gives them in different places.
# Tested on: transgenic fli-1: enhanced GFP zebrafish embryos
# Assay: Zebrafish embryo assay: antiangiogenic effects
# Format: in vivo, zebrafish (Danio rerio)
# Settings: Danio rerio, zebrafish embryos
structure (smiles),measurement,setting,value
"CC(=O)Nc1ccc(NC(=O)/C(C)=C\CC23OC(C)(C)C4CC(C=C5C(=O)c6c(O)c7c(c(CC8OC8(C)C)c6OC542)OC(C)(CCC2OC2(C)C)C=C7)C3=O)cc1 (stereo not shown) [Compound 36, (32,33),(37,38)-Diepoxy-N-(4-acetamidophenyl) gambogamide]",inhibition in vivo at 1 µM,read-out: antiangiogenic rates,25 to 50%
same,inhibition in vivo at 1 µM,"vs vehicle (0.05% DMSO), read-out: Anti-angiogenic phenotype",25 to 50%
same,inhibition in vivo at 2.5 µM,"2.5 μM, vs vehicle (0.05% DMSO), read-out: Anti-angiogenic phenotype",50 to 75%
same,inhibition in vivo at 10 µM,"10 μM, vs vehicle (0.05% DMSO), read-out: Anti-angiogenic phenotype",> 75%
